Laboratory results taken from ChEMBL document CHEMBL1140246, “Synthesis of cationic beta-vinyl substituted meso-tetraphenylporphyrins and their in vitro activity against herpes simplex virus type 1” (2005).

Columns and labels:
[1] = system: Human alphaherpesvirus 1; assay: Photostability against herpes simplex virus type 1 after 15 min of irradiation with total light dose of 45 mW/cm**2; assay type: functional
[2] = system: Vero; assay: Photocytotoxicity was evaluated on the cell growth inhibition using Vero cells were at the concentration of 20 uM after 48 h of incubation; assay type: functional, Chlorocebus sabaeus
[3] = system: Human alphaherpesvirus 1; assay: Photostability against herpes simplex virus type 1 after 3 min of irradiation with total light dose of 9 mW/cm**2; assay type: functional
[4] = system: Vero; assay: Photocytotoxicity was evaluated on the cell growth inhibition using Vero cells were at the concentration of 0.1 uM after 48 hr of incubation; assay type: functional, Chlorocebus sabaeus
[5] = system: Vero; assay: Photocytotoxicity was evaluated on the cell growth inhibition using Vero cells were at the concentration of 1 uM after 48 hr of incubation; assay type: functional, Chlorocebus sabaeus
[6] = system: Vero; assay: Photocytotoxicity was evaluated on the cell growth inhibition using Vero cells were at the concentration of 0.5 uM after 48 hr of incubation; assay type: functional, Chlorocebus sabaeus
[7] = system: Human alphaherpesvirus 1; assay: Photovirucidal effect against herpes simplex virus type 1 after 5 mins of irradiation time with white light of 50 mW/cm2; assay type: functional
[8] = system: Vero; assay: Photocytotoxicity was evaluated on the cell growth inhibition using Vero cells were at the concentration of 10 uM after 48 hr of incubation; assay type: functional, Chlorocebus sabaeus
[9] = system: Human alphaherpesvirus 1; assay: Photostability against herpes simplex virus type 1 after 5 min of irradiation with total light dose of 15 mW/cm**2; assay type: functional
[10] = system: Human alphaherpesvirus 1; assay: Photostability against herpes simplex virus type 1 after 10 min of irradiation with total light dose of 30 mW/cm**2; assay type: functional
[11] = system: Vero; assay: Photocytotoxicity was evaluated on the cell growth inhibition using Vero cells were at the concentration of 0.25 uM after 48 hr of incubation; assay type: functional, Chlorocebus sabaeus
[12] = system: Vero; assay: Photocytotoxicity was evaluated on the cell growth inhibition using Vero cells were at the concentration of 5 uM after 48 hr of incubation; assay type: functional, Chlorocebus sabaeus
[13] = system: Human alphaherpesvirus 1; assay: Photostability against herpes simplex virus type 1 after 1 min of irradiation with total light dose of 3 mW/cm**2; assay type: functional
[14] = system: Human alphaherpesvirus 1; assay: Photovirucidal effect against herpes simplex virus type 1 after 15 mins of irradiation time with white light of 50 mW/cm2; assay type: functional
[15] = system: Vero; assay: Concentration required for cellular cytotoxicity against Vero cells
[16] = system: Human alphaherpesvirus 1; assay: Photovirucidal effect against herpes simplex virus type 1 with no irradiation time with white light of 50 mW/cm2; assay type: functional
[17] = system: Vero; assay: Photocytotoxicity was evaluated on the cell growth inhibition using Vero cells were at the concentration of 20 uM after 48 hr of incubation; assay type: functional, Chlorocebus sabaeus
[18] = system: Vero; assay: Photocytotoxicity was evaluated on the cell growth inhibition using Vero cells were at the concentration of 10 uM after 48 h of incubation; assay type: functional, Chlorocebus sabaeus

| SMILES | Intensity [1] | Viability [2] | Intensity [3] | Viability [4] | Viability [5] | Viability [6] | Virus inactivation [7] | Viability [8] | Intensity [9] | Intensity [10] | Viability [11] | Viability [12] | Intensity [13] | Virus inactivation [14] | CC50 [15] | Virus inactivation [16] | Viability [17] | Viability [18] |
| --- | --- | --- | --- | --- | --- | --- | --- | --- | --- | --- | --- | --- | --- | --- | --- | --- | --- | --- |
| C[n+]1ccc(/C=C/c2cc3[nH]c2c(-c2ccccc2)c2nc(c(-c4ccccc4)c4nc(c(-c5ccccc5)c5ccc([nH]5)c3-c3ccccc3)C=C4)C=C2)cc1.[Cl-] | 91% | 28% | 99% | 104.5% | 97.3% | 98.3% | 0% | 62% | 96% | 93% | 99.9% | 90.8% | 100% | 48.99% | 13.5 µM | – | – | – |
| C[n+]1ccccc1/C=C/c1cc2[nH]c1c(-c1ccccc1)c1nc(c(-c3ccccc3)c3nc(c(-c4ccccc4)c4ccc([nH]4)c2-c2ccccc2)C=C3)C=C1.[Cl-] | 83% | – | 94% | 104.8% | 95.3% | 101% | 96.98% | – | 93% | 88% | 103.3% | 84.6% | 100% | 99.61% | 13.7 µM | 27.8% | 18.8% | 69% |
